Structures are written as SMILES.

In general, IC50 refers to the point on the concentration scale where inhibition reaches its midpoint. Higher therefore signals weaker potency.

Common to all, as to type: cell-based
One experiment deals with MCF-7/ADR. Description: Cytotoxicity, MTT assay, MCF-7/ADR. The settings on record: Homo sapiens, NCI/ADR-RES, 48 h exposure, MCF-7/ADR cells. As for the experimental part:
(§1) Compounds 1–11 were evaluated for cytotoxic activity against several human cancer cell lines by MTT assay. […] The other compounds show no notable inhibitory activity against any tested cancer cell lines.
(§2) MCF-7/ADR, HeLa, HCT-116 cell lines were cultured in Dulbeccos’ modification Eagle’s medium (DMEM, Invitrogen, Carlsbad, CA, USA) supplemented with 10% fetal bovine serum (FBS, Hyclone, Logan, UT, USA), 2 mM L-glutamine, 100 μg/mL streptomycin and 100 U/mL penicillin (Invitrogen). The cells were incubated at 37 °C in a humidified atmosphere with 5% CO2.
(§3) Cells were harvested during logarithmic growth phase and seeded in 96-well plates at a density of 1 × 10^4 cells/mL, and cultured at 37 °C in a humidified incubator (5% CO2) for 24 h, followed by exposure to various concentrations of compounds tested for 48 h. Subsequently 20 μL of MTT (Genview, Houston, TX, USA) solution (5 mg/mL) was added to each well and mixed, the cells were then incubated for an additional 4 h. Culture supernatant was moved, 150 μL of DMSO (Sangon Biotech, Shanghai, China) was added to each well to fully dissolve the MTT-formazan crystals. Cell growth inhibition was determined by measuring the absorbance (Abs) at λ = 570 nm using a microplate reader and calculated according to the following equation: Growth inhibition = (1 − OD of treated cells/OD of control cells) × 100%
(§4) The half maximal inhibitory concentrations (IC50) were obtained from liner regression analysis of the concentration-response curves plotted for each tested compound [17, 18].

The test system of a further experiment is HCT-116. Description: Cytotoxicity, MTT assay, HCT-116. The settings on record: Homo sapiens, 48 h exposure, HCT-116 cells. As for the experimental part: as §1, §2, §3, §4
The test system of another experiment is HeLa. Put plainly: Cytotoxicity, MTT assay, HeLa. The settings on record: Homo sapiens, 48 h exposure, HeLa cells. As for the experimental part: as §1, §2, §3, §4
For orientation: Tetrazolium dyes change colour on reduction, which living cells bring about.

Consider `COc1cc(O)c2c(c1)C(=O)C13OC1(C2=O)[C@H](O)[C@@H](O)[C@@](C)(O)[C@H]3O` (relative stereo) [Compound 1, (1R*,2R*,3R*,4R*)-1,2,3,4,8-pentahydroxy-6-methoxy-3-methyl-1,2,3,4-tetrahydro-4a,9a-epoxyanthracene-9,10-dione], for which the IC50 in the experiment with MCF-7/ADR came to 18.5 µM; in the experiment with HCT-116, 23.2 ± 2.85 µM; with HeLa, 43.7 ± 4.02 µM.

Regarding `COc1cc(O)c2c(c1)C(=O)C1=C(C2=O)[C@H]([C@H]2C3=C(C(=O)c4cc(OC)cc(O)c4C3=O)[C@H](O)[C@](C)(O)[C@H]2O)[C@H](O)[C@@](C)(O)[C@H]1O` (relative stereo) [Compound 2, (1S*,1'S*,2R*,2'R*,3S*,3'S*,4S*,4'S*)-1,1',2,2',3,3',5,5'-octahydroxy-7,7'-dimethoxy-2,2'-dimethyl-1,1',2,2',3,3',4,4'-octahydro-[4,4'-bianthracene]-9,9',10,10'-tetraone], the IC50 is above 100 µM in the experiment with MCF-7/ADR, above 50 µM in the experiment on HCT-116 and above 50 µM in the experiment with HeLa.

Regarding `COc1cc(O)c2c(c1-c1c(OC)cc(O)c3c1C(=O)c1cc(C)c(O)cc1C3=O)C(=O)C1=C(C2=O)[C@H](O)[C@@H](O)[C@@](C)(O)[C@H]1O` (relative stereo) [Compound 3, (1S*,2R*,3S*,4S*)-1,2,2',3,4,8,8'-heptahydroxy-6,6'-dimethoxy-3,3'-dimethyl-1,2,3,4-tetrahydro-[5,5'-bianthracene]-9,9',10,10'-tetraone], the IC50 was 32.4 ± 1.57 µM with HCT-116 and above 50 µM with HeLa.

Regarding `COc1cc(O)c2c(c1-c1c(OC)cc(O)c3c1C(=O)c1cc(C)c(O)cc1C3=O)C(=O)C1=C(C2=O)[C@@H](O)[C@@H](O)[C@@](C)(O)[C@H]1O` (relative stereo) [Compound 4, (1R*,2R*,3S*,4S*)-1,2,2',3,4,8,8'-heptahydroxy-6,6'-dimethoxy-3,3' dimethyl-1,2,3,4-tetrahydro-5,5'-bianthracene-9,9',10,10'-tetraone], the IC50 in the experiment on MCF-7/ADR is above 50 µM; in the experiment with HCT-116, above 50 µM; with HeLa, above 100 µM.

Turning to `COc1cc2c(c(-c3c(O)c(OC)cc4c3C(=O)C3=C(C4=O)[C@@H](O)[C@H](O)[C@](C)(O)[C@@H]3O)c1O)C(=O)C1=C(C2=O)[C@@H](O)[C@H](O)[C@](C)(O)[C@@H]1O` [Compound 5, alterporriol E], the IC50 in the experiment on MCF-7/ADR, in the experiment with HCT-116 and in the experiment with HeLa was above 100 µM each time.

For `COc1cc(O)c2c(c1-c1c(OC)cc(O)c3c1C(=O)C1=C(C3=O)[C@@H](O)[C@H](O)[C@](C)(O)[C@@H]1O)C(=O)C1=C(C2=O)[C@@H](O)[C@H](O)[C@](C)(O)[C@@H]1O` [Compound 6, alterporriol D], the IC50 in the experiment on MCF-7/ADR, in the experiment with HCT-116 and in the experiment with HeLa was above 100 µM throughout.

With `COc1cc(O)c2c(c1)C(=O)c1cc(C)c(O)c(-c3c(OC)cc(O)c4c3C(=O)C3=C(C4=O)[C@H](O)[C@@H](O)[C@@](C)(O)[C@H]3O)c1C2=O` [Compound 7, alterporriol N], the IC50 in the experiment on MCF-7/ADR, in the experiment on HCT-116 and with HeLa was above 100 µM throughout.

For the molecule `COc1cc(O)c2c(c1-c1c(OC)cc(O)c3c1C(=O)c1cc(C)c(O)cc1C3=O)C(=O)C1=C(C2=O)[C@@H](O)[C@H](O)[C@](C)(O)[C@H]1O` [Compound 8, alterporriol A], the IC50 is 45 µM with MCF-7/ADR, above 50 µM with HCT-116 and above 50 µM in the experiment on HeLa.

With `COc1cc(O)c2c(c1)C(=O)C1=C(C[C@@H](O)[C@@](C)(O)[C@@H]1O)C2=O` [Compound 9, altersolanol C], the results for the IC50 with MCF-7/ADR, with HCT-116 and with HeLa were above 100 µM, 3.03 ± 0.05 µM and 8.09 ± 0.89 µM, respectively.

For `COc1cc(O)c2c(c1)C(=O)C1=C(C2=O)[C@H](O)[C@@H](O)[C@@](C)(O)[C@@H]1O` [Compound 10, altersolanol A], the IC50 in the experiment on MCF-7/ADR, with HCT-116 and with HeLa was above 100 µM each time.

Turning to `COc1cc(O)c2c(c1)C(=O)c1cc(C)c(O)cc1C2=O` [Compound 11, macrosporin], the IC50 in the experiment with MCF-7/ADR, in the experiment on HCT-116 and with HeLa was above 100 µM each time.

In the case of `COc1cccc2c1C(=O)c1c(O)c3c(c(O)c1C2=O)C[C@@](O)(C(=O)CO)C[C@@H]3O[C@H]1C[C@H](N)[C@@H](O)[C@H](C)O1` [EPI, Epirubicin, reference compound], the figures for the IC50 in the experiment on MCF-7/ADR, in the experiment with HCT-116 and in the experiment on HeLa were 2.36 µM, 0.96 ± 0.02 µM and 0.48 ± 0.03 µM, respectively.
